What is called EC50 is the concentration at which the effect is half-maximal. A low value points to a more potent agent.

The test system of this assay is M17—3TAU(P301L) cells. As to the kind of experiment: Neuroblastoma tauopathy model: inhibition of TAU-induced cytotoxicity (LDH). The format is cell-based. The settings on record: Homo sapiens, 168 h; inhibition of TAU-induced toxicity (LDH), 7 days differentiation with retinoic acid. The gist of the method: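 BE-M17 neuroblastoma cells stably expressing human TAU-P301L, differentiated with RA (2.5 μM in added medium) for 7 days at 37 °C with compounds at a range of concentrations. Cytotoxicity as supernatant LDH over total LDH (Cytotox 96); EC50 from dose-dependent inhibition curve.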
With `COc1cccc(CCCN2CCN(c3nc(-c4ccc(Cl)cc4)ns3)CC2)c1` [Example 32, 1-[3-(4-Chloro-phenyl)-[1,2,4]thiadiazol-5-yl]-4-[3-(3-methoxy-phenyl)-propyl]-piperazine], the EC50 turned out to be 368 nM. Turning to `COc1cccc(CCN2CCN(c3nc(-c4ccc(Cl)cc4F)ns3)CC2)c1` [Example 55, 1-[3-(4-Chloro-2-fluoro-phenyl)-[1,2,4]thiadiazol-5-yl]-4-[2-(3-methoxy-phenyl)-ethyl]-piperazine], the EC50 was 4.2 nM. `COc1ccc(CCN2CCN(c3nc(-c4cc(Cl)cc(Cl)c4)ns3)CC2)cc1` [Example 46, 1-[3-(3,5-Dichloro-phenyl)-[1,2,4]thiadiazol-5-yl]-4-[2-(4-methoxy-phenyl)-ethyl]-piperazine] had an EC50 of 31.2 nM. Under `Fc1ccc(-c2nsc(N3CCN(CCC4CCCCC4)CC3)n2)cc1F` [Example 153, 1-(2-Cyclohexyl-ethyl)-4-[3-(3,4-difluoro-phenyl)-[1,2,4]thiadiazol-5-yl]-piperazine] stands 5.9 nM. Under `COc1ccc(CC(C)N2CCN(c3nc(-c4ccc(Cl)cc4)ns3)CC2)cc1` (centres unmarked) [Example 73, 1-[3-(4-Chloro-phenyl)-[1,2,4]thiadiazol-5-yl]-4-[2-(4-methoxy-phenyl)-1-methyl-ethyl]-piperazine] stands 0.9 nM; under `O=C(CN1CCN(c2nc(-c3ccc(Cl)cc3)ns2)CC1)c1cccc(F)c1` [Example 62, 2-{4-[3-(4-Chloro-phenyl)-[1,2,4]thiadiazol-5-yl]-piperazin-1-yl}-1-(3-fluoro-phenyl)-ethanone], 68.7 nM; under `Cc1ccc(-c2nsc(N3CCN(CCc4ccc(Cl)c(Cl)c4)CC3)n2)cc1` [Example 5, 1-[2-(3,4-Dichloro-phenyl)-ethyl]-4-(3-p-tolyl-[1,2,4]thiadiazol-5-yl)-piperazine], 396 nM.

Molecule `FC(F)Oc1cccc(CCN2CCN(c3nc(-c4ccc(Cl)cc4)ns3)CC2)c1` [Example 69, 1-[3-(4-Chloro-phenyl)-[1,2,4]thiadiazol-5-yl]-4-[2-(3-difluoromethoxy-phenyl)-ethyl]-piperazine] yielded an EC50 of 43.7 nM. Under `Cc1ncc(-c2nsc(N3CCN(CCc4ccc(Cl)cc4)CC3)n2)cn1` [Example 180, 5-(4-(4-chlorophenethyl)piperazin-1-yl)-3-(2-methylpyrimidin-5-yl)-1,2,4-thiadiazole] stands 129 nM; under `Clc1cc(-c2nsc(N3CCN(CCc4ccccc4)CC3)n2)ccn1` [Example 170, 3-(2-chloropyridin-4-yl)-5-(4-phenethylpiperazin-1-yl)-1,2,4-thiadiazole], 0.7 nM. The figure for `FC(F)(F)c1ccc(CCN2CCN(c3nc(-c4cccc(Cl)c4)ns3)CC2)cc1` [Example 145, 1-[3-(3-Chloro-phenyl)-[1,2,4]thiadiazol-5-yl]-4-[2-(4-trifluoromethyl-phenyl)-ethyl]-piperazine] is 462 nM. The figure for `COc1ccc(CCN2CCN(c3nc(-c4ccc(F)c(F)c4)ns3)CC2)cc1` [Example 102, 1-[3-(3,4-Difluoro-phenyl)-[1,2,4]thiadiazol-5-yl]-4-[2-(4-methoxy-phenyl)-ethyl]-piperazine] is 0.9 nM.

Molecule `COc1cccc(CCN2CCN(c3nc(-c4ccc(F)cc4)ns3)CC2)c1` [Example 34, 1-[3-(4-Fluoro-phenyl)-[1,2,4]thiadiazol-5-yl]-4-[2-(3-methoxy-phenyl)-ethyl]-piperazine] gave an EC50 of 1.4 nM.

On to `Fc1ccc(CCN2CCN(c3nc(-c4ccc(Cl)cc4)ns3)CC2)cc1` [Example 24, 1-[3-(4-Chloro-phenyl)-[1,2,4]thiadiazol-5-yl]-4-[2-(4-fluoro-phenyl)-ethyl]-piperazine], for which the EC50 was 0.7 nM. This EC50 lies about 2-fold lower than the previous one.

These data come from patent US9023852B2, “1, 2, 4-thiadiazol-5-ylpiperazine derivatives useful in the treatment of neurodegenerative diseases” (Remynd NV, priority 2011, dated 2015).
